Experimental findings from PubChem BioAssay AID1053178 (The Scripps Research Institute Molecular Screening Center, 2014) are described below.

Structures are written as SMILES. Active and inactive are the calls of the source.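 How the source made its calls: active means IC50 at or below 10 µM; inactive means IC50 above 10 µM.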

The experiment has as its target Trace amine-associated receptor 1 (Homo sapiens) (UniProt Q96RJ0). As to the kind of experiment: blockers of human TAAR1 receptor – cell-based, fluorescence, MDRUN002, late-stage follow-up (AID 1053178). As to conditions: CHO TAAR1 cells, cAMP TR-FRET, PEA-stimulated antagonism.

Trace amine-associated receptor 1 (Homo sapiens), sequence (Q96RJ0 whole entry, looked up): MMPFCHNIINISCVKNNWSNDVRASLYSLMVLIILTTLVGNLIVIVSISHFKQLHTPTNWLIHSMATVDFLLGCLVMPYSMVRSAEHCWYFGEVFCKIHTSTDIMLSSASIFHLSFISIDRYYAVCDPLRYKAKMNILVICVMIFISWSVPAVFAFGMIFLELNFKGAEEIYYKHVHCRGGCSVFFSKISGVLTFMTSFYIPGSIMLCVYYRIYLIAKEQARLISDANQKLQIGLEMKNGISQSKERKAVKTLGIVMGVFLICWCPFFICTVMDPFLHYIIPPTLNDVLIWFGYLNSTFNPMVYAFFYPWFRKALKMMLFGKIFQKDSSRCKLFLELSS

Take `CC(CN1CCCC1Cc1ccccc1)C(=O)c1ccc2c(c1)OCCO2` (configuration not stated): the IC50 was > 37.4 µM (inactive). With `COc1cc(C(=O)CCN2CCC(c3ccccc3)C2)cc(OC)c1OC` (configuration not stated) the figure was > 37.4 µM (inactive); with `N#Cc1c(C(F)(F)F)cc(-c2ccc(Cl)cc2)nc1SCC(=O)Nc1ncccn1`, 0.00433 µM; with `O=C(CCN1CCC(c2ccccc2)C1)c1ccccc1` (configuration not stated), > 37.4 µM (inactive).

Regarding `Cc1ccc(C(=O)CCN2CCC(c3ccccc3)C2)cc1` (configuration not stated), the IC50 was > 37.4 µM (inactive). With `N#Cc1c(C(F)(F)F)cc(-c2ccc(Cl)cc2)nc1SCC(=O)N1CCCC1` the figure was 0.179 µM; with `N#Cc1c(C(F)(F)F)cc(-c2ccc(Cl)cc2)nc1SCC(=O)N1CCCCCC1`, “inactive”.

As usually defined, the IC50 is the point on the concentration scale where inhibition reaches its midpoint.
